Assay results: PubChem BioAssay AID330 (DTP/NCI, 2004)
Where “and” joins values, the source holds several entries; their conditions need not be identical. Equal entries are not always repeated. Toxic doses and inconclusive results are not listed.

Tested on: P388 leukemia ip, CD2F1 mice, survival T/C
Assay: NCI In Vivo Anticancer Drug Screen. Data for tumor model P388 Leukemia (intraperitoneal) in CD2F1 (CDF1) mice
Conditions: endpoint: median survival time, higher = longer survival
Procedure, shortened: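 Mice carrying the transplanted tumor received test compound or vehicle. Survival was recorded in each group, and the value is the treated-group measurement divided by that of the vehicle-treated control group.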

[1] = dose: 50.0 mg/kg/injection, schedule: Q01DX005 (ip), vehicle: saline with Tween-80
[2] = dose: 50.0 mg/kg/injection, schedule: Q01DX005 (ip), vehicle: Klucel (hydroxypropylcellulose) (HPC)
[3] = dose: 100.0 mg/kg/injection, schedule: Q01DX005 (ip), vehicle: Klucel (hydroxypropylcellulose) (HPC)
[4] = dose: 100.0 mg/kg/injection, schedule: Q01DX001 (ip), vehicle: saline with Tween-80
[5] = dose: 200.0 mg/kg/injection, schedule: Q01DX001 (ip), vehicle: saline with Tween-80
[6] = dose: 400.0 mg/kg/injection, schedule: Q01DX001 (ip), vehicle: saline with Tween-80
[7] = dose: 60.0 mg/kg/injection, schedule: Q01DX005 (ip), vehicle: saline with Tween-80
[8] = dose: 120.0 mg/kg/injection, schedule: Q01DX005 (ip), vehicle: saline with Tween-80
[9] = dose: 240.0 mg/kg/injection, schedule: Q01DX005 (ip), vehicle: saline with Tween-80

COc1cc(C)c(C(CC(=O)O)CC(=O)N(CCCl)CCCl)cc1C(C)C (stereo unspecified)
T/C (dose: 100.0 mg/kg/injection, schedule: Q01DX003 (ip), vehicle: saline): 102 % of control
T/C (dose: 200.0 mg/kg/injection, schedule: Q01DX003 (ip), vehicle: saline): 100 % of control
T/C (dose: 400.0 mg/kg/injection, schedule: Q01DX003 (ip), vehicle: saline): 100 % of control

CC1CCCC(C)N1C(=O)C(Cl)(Cl)Cl (stereo unspecified)
T/C [1]: 100 % of control
T/C (dose: 100.0 mg/kg/injection, schedule: Q01DX005 (ip), vehicle: saline with Tween-80): 100 % of control
T/C (dose: 200.0 mg/kg/injection, schedule: Q01DX005 (ip), vehicle: saline with Tween-80): 100 % of control

CCC[CH2][Sn]([Cl])([Cl])[CH2]CCC
T/C (dose: 0.19 mg/kg/injection, schedule: Q01DX009 (ip), vehicle: saline with Tween-80): 100 % of control
T/C (dose: 0.38 mg/kg/injection, schedule: Q01DX009 (ip), vehicle: saline with Tween-80): 113 % of control
T/C (dose: 0.75 mg/kg/injection, schedule: Q01DX009 (ip), vehicle: saline with Tween-80): 114 % of control and 120 % of control
T/C (dose: 1.5 mg/kg/injection, schedule: Q01DX009 (ip), vehicle: saline with Tween-80): 112 % of control and 114 % of control
T/C (dose: 3.0 mg/kg/injection, schedule: Q01DX009 (ip), vehicle: saline with Tween-80): 168 % of control
T/C (dose: 6.0 mg/kg/injection, schedule: Q01DX009 (ip), vehicle: saline with Tween-80): 91 % of control
T/C (dose: 100.0 mg/kg/injection, schedule: Q04DX003 (ip), vehicle: saline): 109 % of control

C=Cn1c([N+](=O)[O-])cnc1/C=C/c1ccc(C(=O)OCCN(CC)CC)cc1
T/C (dose: 100.0 mg/kg/injection, schedule: Q04DX002 (ip), vehicle: Klucel (hydroxypropylcellulose) (HPC)): 99 % of control
T/C (dose: 200.0 mg/kg/injection, schedule: Q04DX002 (ip), vehicle: Klucel (hydroxypropylcellulose) (HPC)): 103 % of control

Cc1ccc(S(=O)(=O)C(Cl)(SCl)Sc2ccccc2)cc1 (stereo unspecified)
T/C (dose: 50.0 mg/kg/injection, schedule: Q01DX009 (ip), vehicle: Klucel (hydroxypropylcellulose) (HPC)): 95 % of control
T/C (dose: 100.0 mg/kg/injection, schedule: Q01DX009 (ip), vehicle: Klucel (hydroxypropylcellulose) (HPC)): 93 % of control
T/C (dose: 200.0 mg/kg/injection, schedule: Q01DX009 (ip), vehicle: Klucel (hydroxypropylcellulose) (HPC)): 93 % of control

Cc1cc2c(cc1C)NC1=C(N2)OC(c2cccc(O)c2)C1=O (stereo unspecified)
T/C (dose: 7.5 mg/kg/injection, schedule: Q01DX005 (ip), vehicle: Klucel (hydroxypropylcellulose) (HPC)): 104 % of control
T/C (dose: 15.0 mg/kg/injection, schedule: Q01DX005 (ip), vehicle: Klucel (hydroxypropylcellulose) (HPC)): 101 % of control
T/C (dose: 30.0 mg/kg/injection, schedule: Q01DX005 (ip), vehicle: Klucel (hydroxypropylcellulose) (HPC)): 110 % of control

CCCC(NC(=O)OCc1ccccc1)C(=O)NC(Cc1c[nH]c2ccccc12)C(=O)O (stereo unspecified)
T/C [2]: 109 % of control
T/C [3]: 108 % of control
T/C (dose: 200.0 mg/kg/injection, schedule: Q01DX005 (ip), vehicle: Klucel (hydroxypropylcellulose) (HPC)): 94 % of control

O=C1OC(=O)C2c3ccccc3C=CC12 (stereo unspecified)
T/C (dose: 25.0 mg/kg/injection, schedule: Q01DX001 (ip), vehicle: saline with Tween-80): 98 % of control
T/C (dose: 50.0 mg/kg/injection, schedule: Q01DX001 (ip), vehicle: saline with Tween-80): 98 % of control
T/C [4]: 104 % of control
T/C [5]: 120 % of control
T/C [6]: 113 % of control

CCCCCCCCCCCC(=O)NN
T/C (dose: 50.0 mg/kg/injection, schedule: Q01DX009 (ip), vehicle: saline with Tween-80): 95 % of control
T/C (dose: 100.0 mg/kg/injection, schedule: Q04DX003 (ip), vehicle: saline with Tween-80): 100 % of control
T/C (dose: 200.0 mg/kg/injection, schedule: Q04DX003 (ip), vehicle: saline with Tween-80): 100 % of control

Cc1nc(N(C)C)oc(=O)c1CCc1ccccc1
T/C [7]: 102 % of control
T/C [8]: 102 % of control
T/C [9]: 100 % of control

CC1CCCCC1(O)Cc1ccccc1 (stereo unspecified)
T/C (dose: 50.0 mg/kg/injection, schedule: Q01DX005 (ip), vehicle: distilled water + alcohol): 108 % of control
T/C (dose: 100.0 mg/kg/injection, schedule: Q01DX005 (ip), vehicle: distilled water + alcohol): 101 % of control
T/C (dose: 200.0 mg/kg/injection, schedule: Q01DX005 (ip), vehicle: distilled water + alcohol): 105 % of control

C=C1C2CCC3C(CCC4C5(C)CCCC43C3OCCN3C5)(C2)C1OC(C)=O (stereo unspecified)
T/C (dose: 12.0 mg/kg/injection, schedule: Q01DX009 (ip), vehicle: Klucel (hydroxypropylcellulose) (HPC)): 100 % of control
T/C (dose: 24.0 mg/kg/injection, schedule: Q01DX009 (ip), vehicle: Klucel (hydroxypropylcellulose) (HPC)): 96 % of control
T/C (dose: 48.0 mg/kg/injection, schedule: Q01DX009 (ip), vehicle: Klucel (hydroxypropylcellulose) (HPC)): 91 % of control

Nc1nc(=O)nc2[nH]c3c4cccc5cccc(c3nc12)c54 (tested in a mixture with another compound)
T/C (dose: 12.5 mg/kg/injection, schedule: Q01DX005 (ip), vehicle: Klucel (hydroxypropylcellulose) (HPC)): 92 % of control and 98 % of control
T/C (dose: 25.0 mg/kg/injection, schedule: Q01DX005 (ip), vehicle: Klucel (hydroxypropylcellulose) (HPC)): 101 % of control and 104 % of control
T/C [2]: 100 % of control and 106 % of control and 112 % of control
T/C [3]: 116 % of control

Cc1cc(N=[N+]=[N-])c2cc3c(cc2n1)OCO3
T/C [7]: 103 % of control
T/C [8]: 95 % of control
T/C [9]: 94 % of control

BrCC(Br)=C(Br)Br
T/C (dose: 3.12 mg/kg/injection, schedule: Q01DX009 (ip), vehicle: saline with Tween-80): 104 % of control
T/C (dose: 6.25 mg/kg/injection, schedule: Q01DX009 (ip), vehicle: saline with Tween-80): 106 % of control
T/C (dose: 12.5 mg/kg/injection, schedule: Q01DX009 (ip), vehicle: saline with Tween-80): 98 % of control

CCCCCC(=O)NC(Cc1ccc(N(CCCl)CCCl)cc1)C(=O)O (stereo unspecified)
T/C (dose: 1.3 mg/kg/injection, schedule: Q03HX008 (ip), vehicle: saline): 100 % of control
T/C (dose: 1.32 mg/kg/injection, schedule: Q01DX009 (ip), vehicle: saline): 109 % of control
T/C (dose: 2.6 mg/kg/injection, schedule: Q03HX008 (ip), vehicle: saline): 110 % of control
T/C (dose: 2.65 mg/kg/injection, schedule: Q01DX009 (ip), vehicle: saline): 113 % of control
T/C (dose: 5.3 mg/kg/injection, schedule: Q03HX008 (ip), vehicle: saline): 120 % of control
T/C (dose: 21.2 mg/kg/injection, schedule: Q03HX008 (ip), vehicle: saline): 150 % of control

CCOC(=O)N(C)N(C)C(=O)OCC
T/C (dose: 50.0 mg/kg/injection, schedule: Q01DX005 (ip), vehicle: saline): 100 % of control
T/C (dose: 100.0 mg/kg/injection, schedule: Q01DX005 (ip), vehicle: saline): 100 % of control
T/C (dose: 200.0 mg/kg/injection, schedule: Q01DX005 (ip), vehicle: saline): 100 % of control

[O-][N+]12CCCCC1C1CC(C2)C2CCCC(c3ccccc3)N2C1 (stereo unspecified)
T/C (dose: 12.5 mg/kg/injection, schedule: Q01DX009 (ip), vehicle: Klucel (hydroxypropylcellulose) (HPC)): 101 % of control and 105 % of control and 116 % of control
T/C (dose: 25.0 mg/kg/injection, schedule: Q01DX009 (ip), vehicle: Klucel (hydroxypropylcellulose) (HPC)): 103 % of control and 112 % of control and 114 % of control

CC1=CC(O)(CC(N)=O)C=C(C)C1=O
T/C (dose: 3.13 mg/kg/injection, schedule: Q01DX009 (ip), vehicle: distilled water + Tween-80): 100 % of control
T/C (dose: 6.25 mg/kg/injection, schedule: Q01DX009 (ip), vehicle: distilled water + Tween-80): 100 % of control
T/C (dose: 12.5 mg/kg/injection, schedule: Q01DX009 (ip), vehicle: distilled water + Tween-80): 99 % of control
T/C (dose: 25.0 mg/kg/injection, schedule: Q01DX009 (ip), vehicle: distilled water + Tween-80): 100 % of control
T/C (dose: 50.0 mg/kg/injection, schedule: Q01DX009 (ip), vehicle: distilled water + Tween-80): 100 % of control
T/C (dose: 100.0 mg/kg/injection, schedule: Q01DX009 (ip), vehicle: distilled water + Tween-80): 108 % of control
T/C (dose: 200.0 mg/kg/injection, schedule: Q01DX009 (ip), vehicle: distilled water + Tween-80): 108 % of control
T/C (dose: 400.0 mg/kg/injection, schedule: Q01DX009 (ip), vehicle: distilled water + Tween-80): 108 % of control

CCCNP1(NCCC)=NP(NCCC)(NCCC)=NP(NCCC)(NCCC)=NP(NCCC)(NCCC)=N1
T/C (dose: 12.5 mg/kg/injection, schedule: Q01DX005 (ip), vehicle: saline with Tween-80): 104 % of control
T/C (dose: 25.0 mg/kg/injection, schedule: Q01DX005 (ip), vehicle: saline with Tween-80): 99 % of control
T/C [1]: 100 % of control and 104 % of control

O=c1c2cc(Cl)cc(Cl)c2nc2n1S(=O)(=O)c1ccccc1N2c1ccccc1
T/C [4]: 94 % of control
T/C [5]: 91 % of control
T/C [6]: 95 % of control
